Assay results: paper PMC5958064, “Single cell analysis of kynurenine and System L amino acid transport in T cells” (Nature Communications, 2018)

Assays:
AHR = experiment: Cyp1a1 mRNA induction in TH17cond CD4+ T cells (qPCR); format: cell-based, mouse
Method: To activate primary T cells, spleens and/or lymph nodes (LN) were removed, disaggregated and red blood cells lysed. Cells were stimulated with 1 μg/ml of the CD3 monoclonal antibody (2C11) and 2 μg/ml anti-CD28 (37.51; ebiosciences) to trigger the TCR. Naive CD4^+ T cells and 24 h TCR-activated CD4^+ T cells were purified using CD4 isolation kit (EasySep, STEMCELL Technologies). […] Proleukin, Novartis) for a further 3–5 days. To generate TH1s and TH17s, murine CD8^+ T cells were depleted from lymph node preparations using CD8 depletion kit (EasySep, STEMCELL Technologies). […] RnD Systems) and IL-2 (20 ng/ml) and for TH17s; cytokines IL-6 (50 ng/ml, Peprotech), IL-1β (10 ng/ml, Peprotech) and TGFβ (2 ng/ml, Peprotech). TH17s were cultured in IMDM (Gibco). All other cells were cultured in RPMI 1640 containing L-glutamine (Gibco). Culture media was supplemented with 10% FBS (Gibco), 50 μM β-mercaptoethanol (β-ME, Sigma) and penicillin/streptomycin (Gibco). Cells were incubated at 37 °C with 5% CO2 throughout. […] RNA was purified using the RNeasy RNA purification Mini Kit (Qiagen) (Genomic DNA was digested with RNase-free DNase (Qiagen) following manufacturer instructions) and reverse-transcribed using the iScript cDNA synthesis kit (BioRad). Quantitative PCR was performed in 96-well plate format using iQ SYBR Green-based detection (BioRad) on a BioRad iCycler.

[1] = biological target: T1, System L transporter SLC7A5 (Mus musculus, UniProt Q9Z127); experiment: Radiolabelled 3H-kynurenine uptake in T cells; format: cell-based
T1 construct: endogenous in cells
Method: To activate primary T cells, spleens and/or lymph nodes (LN) were removed, disaggregated and red blood cells lysed. Cells were stimulated with 1 μg/ml of the CD3 monoclonal antibody (2C11) and 2 μg/ml anti-CD28 (37.51; ebiosciences) to trigger the TCR. Naive CD4^+ T cells and 24 h TCR-activated CD4^+ T cells were purified using CD4 isolation kit (EasySep, STEMCELL Technologies). […] Proleukin, Novartis) for a further 3-5 days. To generate TH1s and TH17s, murine CD8^+ T cells were depleted from lymph node preparations using CD8 depletion kit (EasySep, STEMCELL Technologies). […] RnD Systems) and IL-2 (20 ng/ml) and for TH17s; cytokines IL-6 (50 ng/ml, Peprotech), IL-1β (10 ng/ml, Peprotech) and TGFβ (2 ng/ml, Peprotech). TH17s were cultured in IMDM (Gibco). All other cells were cultured in RPMI 1640 containing L-glutamine (Gibco). Culture media was supplemented with 10% FBS (Gibco), 50 μM β-mercaptoethanol (β-ME, Sigma) and penicillin/streptomycin (Gibco). Cells were incubated at 37 °C with 5% CO2 throughout. […] Cells were pelleted below the oil, the aqueous supernatant solution, followed by the silicon oil/dibutyl phthalate mixture was aspirated, and the cell pellet underneath resuspended in 200 μl NaOH (0.5 M) and β-radioactivity measured by liquid scintillation counting in a Beckman LS 6500 Multi-Purpose Scintillation Counter (Beckman Coulter). […] Where indicated, the sodium free buffer was prepared using TMACl as described in Baird et al.[35] Data are expressed as molecules radiotracer per cell per minute. […] All other chemicals were obtained from Sigma.

[2] = biological target: T1, System L transporter SLC7A5; experiment: Flow cytometry kynurenine uptake assay (450 nm fluorescence) in T cells; format: cell-based; settings: for IC50: 37 °C
From the text: For cell surface staining, antibodies conjugated to FITC, PE, APC, Alexafluor 647 (A647), APC-efluor780 (APCe780), and PerCPCy5.5 were obtained from either BD Pharmingen, eBioscience or Biolegend. Fc receptors were blocked using Fc Block (BD Pharmingen). Antibody clones used were: CD4 (RM4-5), CD8a (53-6.7), TCRβ (H57-597), CD44 (IM7), CD45.1 (A20), CD45.2 (104) and CD98 (RC388). Cells were fixed using 1% paraformaldehyde. Standard intracellular cytokine staining protocols were followed for IFNγ (clone XMG1.2; Biolegend) staining. Data were acquired on a LSR Fortessa II with DIVA software or a FACSVerse flow cytometer with FACSuite software (BD Biosciences) and analysed using FlowJo software version 9.9.5 (TreeStar).
Start with at least 1 × 10^6 cells per condition, to obtain at least 200,000 events analysed by flow cytometry at the end of the protocol. […] If required, surface cell antibody staining should be performed prior to uptake assay protocol. This may be performed at room temperature or 4 °C, however test samples must be warmed to 37 °C, e.g. in water bath, prior to kynurenine uptake. (As with all multi-parameter flow cytometry, appropriate antibody staining controls must also be performed.) Samples can be fixed immediately after uptake assay by addition of 4% (vol/vol) paraformaldehyde (PFA; to a final concentration of 1%) for 30 min at room temperature.
For kynurenine uptake assay; pre-warm kynurenine (800 μM, in HBSS), BCH (40 mM, in HBSS) and lysine (20 mM, HBSS) and HBSS to 37 °C. After surface antibody staining of samples, resuspend cells in 200 μl warmed HBSS (1–5 × 10^6 cells in FACS tubes, or scale accordingly into plates). Keep cells in water bath at 37 °C. Add 100 μl of HBSS, or BCH or lysine to appropriate samples. Add 100 μl HBSS to no kynurenine controls (final volume 400 μl). Finally, add 100 μl kynurenine to appropriate samples. Stop uptake after 4 min by adding 125 μl 4% PFA for 30 min at room temperature, in the dark. The final concentrations for uptake assay are: 200 μM kynurenine; +/-10 mM BCH; +/-5 mM lysine. After fixation, wash cells twice in PBS/0.5% BSA and resuspend in PBS/0.5% BSA prior to acquisition on flow cytometer. The 405 nm laser and 450/50 BP filter are used for kynurenine fluorescence detection.
To monitor kynurenine uptake in live cells, acquire data on flow cytometer immediately following addition of kynurenine and plot fluorescence against time.

[3] = summary over CTL, TH1 and 24 h TCR-stimulated T cells

T1 sequence (Q9Z127 whole entry): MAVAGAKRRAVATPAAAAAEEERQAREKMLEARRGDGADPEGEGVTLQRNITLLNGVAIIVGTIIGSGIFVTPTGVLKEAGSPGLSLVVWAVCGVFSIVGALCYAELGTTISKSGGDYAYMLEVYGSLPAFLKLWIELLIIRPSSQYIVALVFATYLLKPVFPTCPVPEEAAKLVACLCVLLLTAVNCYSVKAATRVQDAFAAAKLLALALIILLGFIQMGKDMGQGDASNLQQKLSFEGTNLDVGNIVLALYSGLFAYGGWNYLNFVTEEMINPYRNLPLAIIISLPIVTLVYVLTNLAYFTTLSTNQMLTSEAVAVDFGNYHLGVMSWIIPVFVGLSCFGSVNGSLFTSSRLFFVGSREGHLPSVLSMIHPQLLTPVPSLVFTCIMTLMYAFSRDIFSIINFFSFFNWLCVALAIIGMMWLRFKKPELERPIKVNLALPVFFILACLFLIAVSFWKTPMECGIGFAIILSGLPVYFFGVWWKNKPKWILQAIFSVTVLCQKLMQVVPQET
T1 sequence (P10852 whole entry partner): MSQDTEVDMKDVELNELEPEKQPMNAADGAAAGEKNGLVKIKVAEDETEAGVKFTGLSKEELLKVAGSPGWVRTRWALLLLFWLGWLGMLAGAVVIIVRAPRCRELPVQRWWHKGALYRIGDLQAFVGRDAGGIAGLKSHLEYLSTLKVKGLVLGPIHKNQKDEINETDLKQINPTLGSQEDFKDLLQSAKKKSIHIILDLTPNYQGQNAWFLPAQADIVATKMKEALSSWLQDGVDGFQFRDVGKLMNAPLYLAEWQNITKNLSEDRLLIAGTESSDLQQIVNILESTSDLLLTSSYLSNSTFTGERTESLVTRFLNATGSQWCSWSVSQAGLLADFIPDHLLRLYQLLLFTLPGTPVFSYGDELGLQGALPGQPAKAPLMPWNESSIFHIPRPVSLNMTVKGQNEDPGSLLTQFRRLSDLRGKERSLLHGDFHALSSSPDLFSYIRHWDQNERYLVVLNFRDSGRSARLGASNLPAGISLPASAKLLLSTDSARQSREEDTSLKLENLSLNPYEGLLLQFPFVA

Structure (SMILES): NC1(C(=O)O)CC2CCC1C2 (centres unmarked) [BCH, 2-amino-2-norbornanecarboxylic acid]
- effect on FICZ-induced Cyp1a1 mRNA (AHR; D3 TH17cond CD4+ T cells, FICZ 300 nM 2 h, BCH 25 mM): does not block FICZ mediated Cyp1a1 mRNA induction
- effect on kynurenine-induced Cyp1a1 mRNA (AHR; D3 TH17cond CD4+ T cells, kynurenine 100 μM 2 h, BCH 25 mM): impedes Cyp1a1 mRNA induction in response to kynurenine
- Percentage of kynurenine uptake blocked by BCH, 3H-Kyn ([1]; 24 h CD3/CD28 stimulated T cells (TCR), 4 min uptake): 79.1 ± 11.3%
- Percentage of kynurenine uptake blocked by BCH, 3H-Kyn ([1]; CTL, 4 min uptake): 92.5 ± 0.9%
- Percentage of kynurenine uptake blocked by BCH, 3H-Kyn ([1]; TH1, 4 min uptake): 90.2 ± 2.1%
- effect on 3H-kynurenine transport ([1]; TH1 cells and CTLs, BCH 5 mM): inhibited
- radiolabelled kynurenine uptake blocked [1, 3]: 80–90%
- Percentage of kynurenine uptake blocked by BCH, Kyn MFI ([2]; 24 h CD3/CD28 stimulated T cells (TCR), 450 nm fluorescence emission): 77.1 ± 14.7%
- effect on kynurenine uptake ([2]; CD3/CD28 activated wild-type T cells in co-culture, 5 mM lysine, BCH): BCH treatment did
- IC50 ([2]; CTL, 4 min): 492 ± 45 µM
- Percentage of kynurenine uptake blocked by BCH, Kyn MFI ([2]; CTL, 450 nm fluorescence emission): 78.3 ± 4.5%
- IC50 ([2]; D7 rLM CD8+ effector T cells from spleen, ex vivo, 4 min): 161 ± 34 µM
- effect on kynurenine transport ex vivo ([2]; D7 rLM-infected CD8+ T cells, BCH 10 mM, Leu 5 mM, Lys 5 mM): blocked
- effect on kynurenine transport (450 nm fluorescence) ([2]; TCR-stimulated CD8+ T cells or CTLs, 4 min, BCH 10 mM, Leu 5 mM, Lys 5 mM): prevented
- Percentage of kynurenine uptake blocked by BCH, Kyn MFI ([2]; TH1, 450 nm fluorescence emission): 81.0 ± 9.0%
- kynurenine transport blocked as measured by flow cytometry [2, 3]: 80%

Structure (SMILES): Nc1ccccc1C(=O)CC(N)C(=O)O (centres unmarked) [kynurenine]
- EC50 (AHR; D3 TH17cond CD4+ T cells, 2 h, read-out: EC50 to drive Cyp1A1 mRNA expression): 11.1 µM
- Cyp1a1 mRNA induction, D3 versus D5 post activation (AHR; TH17cond CD4+ T cells, kynurenine 100 μM or FICZ 300 nM, 2 h): strikingly higher on day 3 post activation compared to day 5 cells
- Km ([1]; CTLs, rounded value in Discussion, read-out: Km of kynurenine transport in CTLs): ~200 µM
- Km ([1]; IL-2 maintained CTLs, radiolabelled kynurenine transport assay, read-out: Km for the initial rate of kynurenine transport): 213 µM
- sodium dependence of uptake ([1]; TCR-activated CD4+ T cells, TH1s and CTLs, Na+ containing vs Na+-free buffer): sodium independent
- temperature dependence of kynurenine-mediated increase in MFI ([2]; CTLs, 4 min, 37 °C vs 4 °C): temperature sensitive
- Km ([2]; IL-2 maintained CTLs, flow cytometry assay (MFI), read-out: Km for the initial rate of kynurenine transport): 267 µM
